The IC50 is the midpoint of a concentration-inhibition curve.

SMILES strings stand for the structures.

Drawing on paper PMC8805605, “Discovery of Dimeric Arylsulfonamides as Potent ADAM8 Inhibitors” (ACS Medicinal Chemistry Letters, 2021), this text covers IC50 for 4 compounds.

Assay [1] concerns the target T1, MMP-2 (Homo sapiens, UniProt P08253).
T1 construct: purchased Calbiochem (Merck-Millipore)
T1 sequence (P08253 110-660): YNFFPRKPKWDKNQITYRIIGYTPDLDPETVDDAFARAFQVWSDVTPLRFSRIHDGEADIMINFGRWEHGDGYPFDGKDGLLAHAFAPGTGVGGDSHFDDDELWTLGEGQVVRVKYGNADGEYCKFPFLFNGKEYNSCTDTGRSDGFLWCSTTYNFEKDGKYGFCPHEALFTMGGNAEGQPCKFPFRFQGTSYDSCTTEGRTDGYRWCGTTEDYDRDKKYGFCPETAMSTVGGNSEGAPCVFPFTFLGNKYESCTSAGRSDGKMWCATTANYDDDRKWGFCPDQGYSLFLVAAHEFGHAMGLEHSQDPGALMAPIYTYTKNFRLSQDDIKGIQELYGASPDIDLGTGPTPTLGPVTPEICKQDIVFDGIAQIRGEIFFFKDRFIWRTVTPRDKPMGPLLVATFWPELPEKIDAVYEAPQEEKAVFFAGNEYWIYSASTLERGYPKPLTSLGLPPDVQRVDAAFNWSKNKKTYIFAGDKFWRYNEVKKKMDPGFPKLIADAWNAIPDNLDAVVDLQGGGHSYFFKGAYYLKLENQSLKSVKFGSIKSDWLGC
Put plainly: MMP-2 fluorometric inhibition assay. The note with it: mean of three independent experiments in duplicate, read-out: In vitro inhibitory activity IC50 on MMP-2. Format: biochemical. The protocol: (§1) The newly synthesized bivalent derivatives 1–3 were then tested in vitro on human recombinant ADAM8 in comparison with JG26 by a fluorometric assay. The inhibitory activity against a panel of MMPs and ADAM10/17 was determined as well to assess their selectivity profile. […]
(§2) VI. Biological Activity on Isolated Enzymes
(§3) MMP and ADAM10 inhibition assays.
(§4) Recombinant human MMP-14 catalytic domain was a kind gift of Prof. Gillian Murphy (Department of […]
(§5) Oncology, University of Cambridge, UK). Pro-MMP-1, pro-MMP-2, and pro-MMP-9, were purchased […]
(§6) from Calbiochem (Merck-Millipore). Pro-MMP-12 and ADAM10 were purchased from R&D Systems.
(§7) Proenzymes were activated immediately prior to use with p-aminophenylmercuric acetate (APMA 2 […]
(§8) mM for 1 h at 37°C for MMP-2 and MMP-1, 1 mM for 1 h at 37°C for MMP-9). Pro-MMP-12 was […]
(§9) auto activated by incubating in the fluorometric assay buffer (FAB: Tris 50 mM, pH = 7.5, NaCl 150 […]
(§10) mM, CaCl2 10 mM, Brij 35 0.05% and DMSO 1%) for 30 h at 37°C. For assay measurements, each […]
(§11) inhibitor stock solution (DMSO, 10 mM) was further diluted in FAB at seven different concentrations.
(§12) Activated enzyme (final concentration 0.56 nM for MMP-2, 1.3 nM for MMP-9, 1.0 nM for MMP- […]
(§13) 14cd, 2.0 nM for MMP-1, 2.3 nM for MMP-12 and 20 nM for ADAM10) and inhibitor solutions were […]
(§14) incubated in the assay buffer for 3 h at 25 °C. ADAM10 was incubated for 1 h at 37°C in a different […]
(§15) buffer at pH 9 (Tris 25 mM, ZnCl2 25 µM, Brij-35 0.005 %). After the addition of 200 µM solution of […]
(§16) the fluorogenic substrate Mca-Lys-Pro-Leu-Gly-Leu-Dap(Dnp)-Ala-Arg-NH2 (Bachem) for all the […]
(§17) enzymes in DMSO (final concentration 2 µM for all enzymes, 10 µM for ADAM10), the hydrolysis […]
(§18) was monitored every 10 sec. for 15 min. recording the increase in fluorescence (λ ex = 325 nm, λ em = […]
(§19) 400 nm) using a Molecular Devices SpectraMax Gemini XPS plate reader. The assays were performed […]
(§20) in triplicate in a total volume of 200 μL per well in 96-well microtitre plates (Corning, black, NBS).
(§21) Control wells lack inhibitor. The MMP inhibition activity was expressed in relative fluorescent units […]
(RFU). Percent of inhibition was calculated from control reactions without the inhibitor. IC50 was determined using the formula: v i/v o = 1/(1 + [I]/ IC50), where v i is the initial velocity of substrate cleavage in the presence of the inhibitor at concentration [I] and v o is the initial velocity in the absence of the inhibitor. Results were analyzed using SoftMax Pro software (version 5.4.3, Molecular Devices, Sunnyvale, CA) and Prism Software version 5.0 (GraphPad Software, Inc., La Jolla, CA, USA).
ADAM8 and ADAM17 inhibition assays […]

The target of assay [2] is T2, Recombinant human MMP-14 catalytic domain (Homo sapiens, UniProt P50281).
T2 construct: Recombinant human MMP-14 catalytic domain was a kind gift of Prof; Gillian Murphy; kind gift of Prof; Gillian Murphy (Department of Oncology, University of Cambridge, UK)
Put plainly: MMP-14 fluorometric inhibition assay. Format: biochemical. The note with it: mean of three independent experiments in duplicate, read-out: In vitro inhibitory activity IC50 on MMP-14. The protocol: as §1, §2, §3, §4, §5, §6, §7, §8, §9, §10, §11, §12, §13, §14, §15, §16, §17, §18, §19, §20, §21
(RFU). Percent of inhibition was calculated from control reactions without the inhibitor. IC50 was determined using the formula: v i/v o = 1/(1 + [I]/ IC50), where v i is the initial velocity of substrate cleavage in the presence of the inhibitor at concentration [I] and v o is the initial velocity in the absence of the inhibitor. Results were analyzed using SoftMax Pro software (version 5.4.3, Molecular Devices, Sunnyvale, CA) and Prism Software version 5.0 (GraphPad Software, Inc., La Jolla, CA, USA). […]

On to `O=C(NCCC[C@@H](NS(=O)(=O)c1ccc(OCc2cc(Br)cc(Br)c2)cc1)C(=O)NO)c1cccc(C(=O)NCCC[C@@H](NS(=O)(=O)c2ccc(OCc3cc(Br)cc(Br)c3)cc2)C(=O)NO)c1` [Compound 2], for which the IC50 in assay [1] stood at 3 µM; in assay [2], 50 µM.

As for `O=C(NCCC[C@@H](NS(=O)(=O)c1ccc(OCc2cc(Br)cc(Br)c2)cc1)C(=O)NO)NCCC[C@@H](NS(=O)(=O)c1ccc(OCc2cc(Br)cc(Br)c2)cc1)C(=O)NO` [Compound 3], the figures for the IC50 in assay [1] and in assay [2] were 0.9 µM and 234 µM, respectively.

As to `NC(=O)NCCC[C@@H](NS(=O)(=O)c1ccc(OCc2cc(Br)cc(Br)c2)cc1)C(=O)NO` [JG26, reference compound], the IC50 in assay [1] is 0.24 µM; in assay [2], 19.5 µM.

For `O=C(CCCNC(=O)c1cccc(C(=O)NCCCC(=O)NCCC[C@@H](NS(=O)(=O)c2ccc(OCc3cc(Br)cc(Br)c3)cc2)C(=O)NO)c1)NCCC[C@@H](NS(=O)(=O)c1ccc(OCc2cc(Br)cc(Br)c2)cc1)C(=O)NO` [Compound 1], the IC50 in assay [1] came to 4.66 µM; in assay [2], 57 µM.
